From publication PMC4145318, “Marinopyrrole Derivatives with Sulfide Spacers as Selective Disruptors of Mcl-1 Binding to Pro-Apoptotic Protein Bim” (Marine Drugs, 2014)
Read-outs that look alike come from different tables or passages of the source.

Experiments:
MDA-MB-468 cells [1] = assay: Apoptosis induction (cleaved caspase 3, Western blotting); settings: 40 μM for 16 h
Protocol: (§2) The cells were then processed for Western blotting exactly as described by us previously [16, 38]. […] We next evaluated the effects of the compounds on programed cell death (apoptosis) by determining their ability to induce cleaved caspase 3 in MDA-MB-468 cells.
(§3) Treatment of the human breast cancer (MDA-MB-468) cells and Western blotting were performed using the methods described by us previously [16, 38].

MDA-MB-468 cells [2] = assay: MTT assay; settings: read-out: estimated IC50, inhibition of MDA-MB-468 cell growth
Protocol: In addition, the ability of the compounds to inhibit tumor growth of MDA-MB-468 cells was determined by MTT assays. To this end, MDA-MB-468 cells were treated for 48 h with the compounds at 0, 0.5, 5 and 50 μM, and the cells were processed for MTT assays as described by us [39].
MDA-MB-468 cells were treated and processed for MTT, DAPI nuclear staining and phase imaging of cells as described previously by us [39].

[3] = tested on: Mcl-1 levels in MDA-MB-468 cells; assay: Western blotting of Mcl-1 levels in intact breast cancer cells; settings: 40 μM for 16 h
Protocol: as §2, §3

Bcl-xL/Bim [4] = target: T1, Bcl-xL/Bim (Homo sapiens, UniProt Q07817); assay: ELISA, disruption of Bcl-xL binding to Bim; settings: for IC50: ELISA; for fold more potent than 1 against Bcl-xL/Bim: ELISA IC50 vs. marinopyrrole A (1)
Protocol: (§1) ELISAs were performed using a similar procedure as previously described. Briefly, 40 nM of biotinylated Bim BH3 peptide (Biomatik, Wilmington, DE, USA) in SuperBlock blocking buffer (Thermo Scientific Pierce, Rockford, IL, USA) was incubated in high-binding capacity streptavidin coated plates (Thermo Scientific Pierce, Rockford, IL, USA) for 2 h. Compounds were diluted in 120 µL of PBS containing 10 nM of GST-Mcl-1 or 10 nM GST-Bcl-xL in 1.5-mL tubes for 15 min. Wells were washed with wash buffer (PBS containing 0.05% Tween-20) and then 100 µL of the compound/GST-protein mixture was transferred to the Bim-containing wells. The plates were incubated for 2 h, and then, the wells were washed with wash buffer. HRP-conjugated anti-GST antibody (Bethyl Laboratories, Montgomery, TX, USA) was diluted 1:2000 in SuperBlock, and 100 µL were transferred to each well. The plate was incubated for 1 h, and then, the wells were washed with wash buffer followed by PBS. One hundred microliters of SureBlue TMB Microwell Peroxidase Substrate (VWR International, Radnor, PA, USA) was added to each well, and the plates were developed for 5–10 min. One hundred microliters of 1 N HCl was added to each well to stop the reaction, and the absorbance was read at 450 nm using a µQuant plate reader (Bio-Tek Instruments, Winooski, VT, USA).

Mcl-1/Bim [5] = target: T2, Mcl-1/Bim (Homo sapiens, UniProt Q07820); assay: ELISA, disruption of Mcl-1 binding to Bim; settings: for IC50: ELISA; for fold more potent than 1 against Mcl-1/Bim: ELISA IC50 vs. marinopyrrole A (1)
Protocol: as §1

Bcl-xL/Bim [6] = target: T1, Bcl-xL/Bim; parameters: method as in PMID 24608970; settings: ELISA; average ± SEM, n ≥ 3; data previously reported; cited from earlier work
Mcl-1/Bim [7] = target: T2, Mcl-1/Bim; settings: ELISA; average ± SEM, n ≥ 3; data previously reported; cited from earlier work
[8] = aqueous; stated without method or reference; cited from earlier work
Mcl-1 = target: T3, Mcl-1 (Homo sapiens, UniProt Q07820); assay: Fluorescence-quenching direct binding assay (intrinsic Trp fluorescence); settings: 2.5 μM His-tagged Mcl-1 (residues 172–327), pH 7.6
T3 construct: Recombinant His-tagged Mcl-1 (residues 172–327) was purified as previously described; His; made in house
Protocol: To confirm direct binding of the compounds to Mcl-1, we have established a fluorescence-quenching assay based on the intrinsic Trp fluorescence of Mcl-1 [37].
Recombinant His-tagged Mcl-1 (residues 172–327) was purified as previously described. Intrinsic Trp fluorescence of Mcl-1 was measured with a TECAN M1000 plate reader at excitation wavelength of 285 nm and emission wavelengths of 310–400 nm. Serial dilutions of compound 9 (starting from 20 μM) in 20 mM K-phosphate pH 7.6, […] was used to assay compound binding using 2.5 μM of Mcl-1. Each condition is run at triplicate and binding constants are calculated by nonlinear regression analysis of dose response curves using Prism software 6.0 (Graphpad, La Jolla, CA, USA). Control experiments included titration of DMSO solvent and fluorescence quenching of denatured Mcl-1 in the presence of compound.

[9] = average ± SEM, n ≥ 3 (n = 2 where given), 10 nM GST-Bcl-xL, 40 nM biotinylated Bim BH3 peptide, read-out: Bcl-xL/Bim IC50
[10] = average ± SEM, n ≥ 3, 10 nM GST-Mcl-1, 40 nM biotinylated Bim BH3 peptide, read-out: Mcl-1/Bim IC50
[11] = read-out: IC50 Bcl-xL/Bim disruption (abstract)
[12] = read-out: IC50 Mcl-1/Bim disruption (abstract)

T2 sequence (Q07820 whole entry): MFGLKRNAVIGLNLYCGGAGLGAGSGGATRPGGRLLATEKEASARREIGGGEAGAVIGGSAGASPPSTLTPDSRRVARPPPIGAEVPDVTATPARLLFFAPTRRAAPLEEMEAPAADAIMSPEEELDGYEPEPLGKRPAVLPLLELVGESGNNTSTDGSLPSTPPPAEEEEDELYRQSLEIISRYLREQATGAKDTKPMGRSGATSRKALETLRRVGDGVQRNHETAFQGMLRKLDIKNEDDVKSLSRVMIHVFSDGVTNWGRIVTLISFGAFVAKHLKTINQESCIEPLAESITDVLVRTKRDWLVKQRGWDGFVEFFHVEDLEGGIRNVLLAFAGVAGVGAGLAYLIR
T1 sequence (Q07817 whole entry): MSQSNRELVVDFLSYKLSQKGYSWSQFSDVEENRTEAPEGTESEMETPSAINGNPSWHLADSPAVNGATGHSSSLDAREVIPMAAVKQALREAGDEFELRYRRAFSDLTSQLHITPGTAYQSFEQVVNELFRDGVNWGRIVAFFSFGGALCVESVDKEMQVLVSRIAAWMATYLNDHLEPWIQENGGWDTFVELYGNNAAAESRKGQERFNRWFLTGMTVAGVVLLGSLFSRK
T3 sequence (Q07820 172-327): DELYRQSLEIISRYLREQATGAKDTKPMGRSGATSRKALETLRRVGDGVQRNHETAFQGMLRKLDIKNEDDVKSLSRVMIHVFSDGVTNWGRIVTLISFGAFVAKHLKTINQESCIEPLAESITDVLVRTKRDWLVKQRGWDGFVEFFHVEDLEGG

IC50 (MDA-MB-468 cells [2]; Homo sapiens, MDA-MB-468, 48 h) [µM] | IC50 (Bcl-xL/Bim [4]; [9]) [µM] | IC50 (Mcl-1/Bim [5]; [10]) [µM] | fold more potent than 1 against Bcl-xL/Bim (Bcl-xL/Bim [4]) [fold] | IC50 (Bcl-xL/Bim [4]; [11]) [µM] | fold more potent than 1 against Mcl-1/Bim (Mcl-1/Bim [5]) | IC50 (Mcl-1/Bim [5]; [12]) [µM] | Kd (Mcl-1) [µM] | selectivity for Mcl-1/Bim over Bcl-xL/Bim (Mcl-1/Bim [5]; ratio of ELISA IC50 values) [fold] | SMILES | induction of apoptosis (cleaved caspase 3) (MDA-MB-468 cells [1]) | decrease in the levels of Mcl-1 [3] | IC50 (MDA-MB-468 cells [2]; MTT, 48 h, compounds at 0, 0.5, 5 and 50 μM, estimated) [µM] | IC50 (Bcl-xL/Bim [6]) [µM] | IC50 (Mcl-1/Bim [7]) [µM] | solubility [8]
50 | > 100 | 17.4 ± 3.1 |  |  |  |  |  |  | COc1ccc(CS(=O)(=O)c2ccc(C(=O)c3[nH]c(Cl)c(Cl)c3-n3c(C(=O)c4ccc(S(=O)(=O)Cc5ccc(OC)cc5)cc4O)cc(Cl)c3Cl)c(O)c2)cc1 [Compound 8] | weak | moderately active |  |  |  | 
28 | 0.6 ± 0.2 | 0.7 ± 0.2 | 27.3 | 0.7 | 12.7 fold | 0.6 |  |  | O=C(c1ccc(SCc2ccccc2)cc1O)c1[nH]c(Cl)c(Cl)c1-n1c(C(=O)c2ccc(SCc3ccccc3)cc2O)cc(Cl)c1Cl [Compound 4, (4,4′,5,5′-Tetrachloro-1′H-1,3′-bipyrrole-2,2′-diyl)bis(((2-hydroxy-4-benzylthio)phenyl)methanone)] | potently induced apoptosis | highly potent |  |  |  | 
2 |  |  |  |  |  |  |  |  | CCOC(=O)c1cc(Cl)c(Cl)n1-c1c(C(=O)c2ccccc2O)[nH]c(Cl)c1Cl [Compound 11] | potently induced apoptosis | highly potent |  |  |  | 
29 | > 100 | 6.1 ± 1.3 |  |  |  |  | 2.7 | 16.4 | O=C(O)CSc1ccc(C(=O)c2[nH]c(Cl)c(Cl)c2-n2c(C(=O)c3ccc(SCC(=O)O)cc3O)cc(Cl)c2Cl)c(O)c1 [Compound 9] | weak | moderately active |  |  |  | 
50 | 0.6 ± 0.1 | 0.7 ± 0.1 | 27.3 | 0.7 | 12.7 fold | 0.6 |  |  | COc1ccc(CSc2ccc(C(=O)c3[nH]c(Cl)c(Cl)c3-n3c(C(=O)c4ccc(SCc5ccc(OC)cc5)cc4O)cc(Cl)c3Cl)c(O)c2)cc1 [Compound 5] | potently induced apoptosis | highly potent |  |  |  | 
20 | 69.3 ± 15.8 | 7.3 ± 1.4 |  |  |  |  |  |  | O=C(c1ccc(S(=O)(=O)Cc2ccccc2)cc1O)c1[nH]c(Cl)c(Cl)c1-n1c(C(=O)c2ccc(S(=O)(=O)Cc3ccccc3)cc2O)cc(Cl)c1Cl [Compound 7, (4,4′,5,5′-Tetrachloro-1′H-1,3′-bipyrrole-2,2′-diyl)bis(((2-hydroxy-4-benzylsulfonyl)phenyl)methanone)] | potently induced apoptosis |  |  |  |  | 
20 | > 100 | 63 ± 5.4 |  |  |  |  |  |  | O=C(O)CS(=O)(=O)c1ccc(C(=O)c2[nH]c(Cl)c(Cl)c2-n2c(C(=O)c3ccc(S(=O)(=O)CC(=O)O)cc3O)cc(Cl)c2Cl)c(O)c1 [Compound 10] | potently induced apoptosis | highly potent |  |  |  | 
3 | 1.2 ± 0.2 | 1.8 ± 0.3 |  |  | five |  |  |  | CCOC(=O)CSc1ccc(C(=O)c2[nH]c(Cl)c(Cl)c2-n2c(C(=O)c3ccc(SCC(=O)OCC)cc3O)cc(Cl)c2Cl)c(O)c1 [Compound 3] | potently induced apoptosis | highly potent |  |  |  | 
16 | 17.6 ± 4.5 | 11.5 ± 1.9 |  |  |  |  |  |  | CCOC(=O)c1[nH]c(Cl)c(Cl)c1-n1c(C(=O)c2ccccc2O)cc(Cl)c1Cl [Compound 12] | weak | moderately active |  |  |  | 
50 | > 100 | 37.3 ± 3.1 |  |  |  |  |  |  | CCOC(=O)CS(=O)(=O)c1ccc(C(=O)c2[nH]c(Cl)c(Cl)c2-n2c(C(=O)c3ccc(S(=O)(=O)CC(=O)OCC)cc3O)cc(Cl)c2Cl)c(O)c1 [Compound 6] | potently induced apoptosis | highly potent |  |  |  | 

SMILES | IC50 (MDA-MB-468 cells [2]; Homo sapiens, MDA-MB-468, 48 h) [µM] | IC50 (Bcl-xL/Bim [4]; [9]) [µM] | IC50 (Mcl-1/Bim [5]; [10]) [µM] | fold more potent than 1 against Bcl-xL/Bim (Bcl-xL/Bim [4]) [fold] | IC50 (Bcl-xL/Bim [4]; [11]) [µM] | fold more potent than 1 against Mcl-1/Bim (Mcl-1/Bim [5]) | IC50 (Mcl-1/Bim [5]; [12]) [µM] | Kd (Mcl-1) [µM] | selectivity for Mcl-1/Bim over Bcl-xL/Bim (Mcl-1/Bim [5]; ratio of ELISA IC50 values) [fold] | induction of apoptosis (cleaved caspase 3) (MDA-MB-468 cells [1]) | decrease in the levels of Mcl-1 [3] | IC50 (MDA-MB-468 cells [2]; MTT, 48 h, compounds at 0, 0.5, 5 and 50 μM, estimated) [µM] | IC50 (Bcl-xL/Bim [6]) [µM] | IC50 (Mcl-1/Bim [7]) [µM] | solubility [8]
O=C(c1ccccc1O)c1[nH]c(Cl)c(Cl)c1-n1c(C(=O)c2ccccc2O)cc(Cl)c1Cl [Compound 1, marinopyrrole A, reference compound] |  | 96.6 | 25.1 ± 4.7 |  |  |  |  |  |  | potently induced apoptosis | significant decrease | 2 | 16.4 ± 3.3 | 8.9 ± 1 | poor solubility
